Measurements published in patent publication US20120225093A1, “Abrogating HIV-1 Infection via Drug-Induced Reactivation of Apoptosis” (UNIVERSITY OF MEDICINE AND DENTISTRY OF NEW JERSEY, priority 2010, published 2012).

Tests used:
HIV-infected PBMCs = assay: TUNEL apoptosis in HIV-1 exposed PBMC cultures; assay type: cell-based, human; settings: CPX 30 μM
Method: Uninfected PBMCs were co-incubated with infected PBMC stock in 24-well microplates at 2 ml/well Medium B, at a 10:1 ratio of uninfected-to-infected cells, and a total cell number of 1×10^6. Cultures were maintained and assayed for 6 consecutive days. CPX or Agent P2 was added at the time of inoculation or 12 hr later. Leaving the cell layer undisturbed, half the medium in each well was replenished every day, with concurrent adjustment of compound concentration. On each day during the 6-day experiments, a set of wells was harvested: the cells were processed for determination of viability and apoptosis, and the cell-free supernatants were stored at −80° C. for p24 and viral RNA measurements. […]
The potential across the mitochondrial membrane of live cells was determined flow-cytometrically with the lipophilic cationic fluorochrome JC-1 (5,5′,6,6′-tetrachloro-1,1′,3,3′-tetraethylbenzimidazolcarbocyanine iodide) immediately after sample harvest (BD™ Mitoscreen Kit, BD Biosciences; San Diego, Calif.). DNA fragmentation was quantified flow-cytometrically, using a TUNEL (terminal deoxynucleotide transferase dUTP nick end-labeling) assay (APO-BRDU™; Phoenix Flow Systems; San Diego, Calif.) and a dual-color assay for annexin V binding and 7-AAD exclusion (Annexin V-PE 7-AAD Apoptosis Detection Kit I™; BD Biosciences Pharmingen, San Jose, Calif.). […]

H9-HIV cells = assay: TUNEL DNA fragmentation in H9-HIV cells; assay type: cell-based; settings: 24 hr; between 10 and 20 μM CPX, leveled off at 40 μM
Method: The potential across the mitochondrial membrane of live cells was determined flow-cytometrically with the lipophilic cationic fluorochrome JC-1 (5,5′,6,6′-tetrachloro-1,1′,3,3′-tetraethylbenzimidazolcarbocyanine iodide) immediately after sample harvest (BD™ Mitoscreen Kit, BD Biosciences; San Diego, Calif.). DNA fragmentation was quantified flow-cytometrically, using a TUNEL (terminal deoxynucleotide transferase dUTP nick end-labeling) assay (APO-BRDU™; Phoenix Flow Systems; San Diego, Calif.) and a dual-color assay for annexin V binding and 7-AAD exclusion (Annexin V-PE 7-AAD Apoptosis Detection Kit I™; BD Biosciences Pharmingen, San Jose, Calif.). The apoptotic volume decrease of cells was assessed by the reduction of their diameter (VI-CELL™; Beckman Coulter; Fullerton, Calif.).
The relationship between iron chelation and apoptosis was assessed using the TUNEL assay to measure DNA fragmentation. DEF induces this late apoptotic event in HIV-expressing ACH-2 cells. Similarly, CPX triggered DNA fragmentation in H9-HIV cells in a dose-dependent manner with a steep, almost 10-fold increase in TUNEL-positive cells between 10 and 20 μM CPX that leveled off at 40 μM (FIG. 11C). […]

IL-10 = IL-10 secretion by PBMC cultures (cytometric bead array); assay type: cell-based, human; settings: CPX added at inoculation or 12 hr later; Phase I
Method: (§1) Uninfected PBMCs were co-incubated with infected PBMC stock in 24-well microplates at 2 ml/well Medium B, at a 10:1 ratio of uninfected-to-infected cells, and a total cell number of 1×10^6. Cultures were maintained and assayed for 6 consecutive days. CPX or Agent P2 was added at the time of inoculation or 12 hr later. Leaving the cell layer undisturbed, half the medium in each well was replenished every day, with concurrent adjustment of compound concentration. On each day during the 6-day experiments, a set of wells was harvested: the cells were processed for determination of viability and apoptosis, and the cell-free supernatants were stored at −80° C. for p24 and viral RNA measurements. Experiments were performed at least in duplicate and repeated at least twice.
(§2) p24 core antigen in the supernatant was quantified by ELISA (Retrotek HIV-1 p24™; ZeptoMetrix Corp.; Buffalo, N.Y.). HIV-1 RNA copy number in the supernatant was determined with a PCR-based and FDA-approved assay (Amplicor HIV-1 Monitor™; Roche Diagnostics Corp.; Indianapolis, Ind.). IFN-γ and IL-10 in the supernatant were determined by cytometric bead array (Human Th1/Th2 Cytokine Kit II™; BD Biosciences Pharmingen, San Jose, Calif.).
(§3) To further assess the cellular effects of CPX, the secretion of interferon (IFN)-γ and interleukin (IL)-10 was measured. […]

IFN-γ = IFN-γ secretion by PBMC cultures (cytometric bead array); assay type: cell-based, human; settings: CPX added at inoculation or 12 hr later; Phase I
Method: as §1, §2, §3

## Cc1cc(C2CCCCC2)n(O)c(=O)c1 [CPX, 6-cyclohexyl-1-hydroxy-4-methylpyridin-2[1H]-one]
HIV-infected PBMCs; 144 hr after inoculation
  apoptotic (TUNEL-positive) cells: 71.8% (±8.8%)
HIV-infected PBMCs; HIV-infected cultures
  increase in proportion of TUNEL-positive PBMCs: ~10 fold
H9-HIV cells
  increase in TUNEL-positive cells: ~10 fold
IL-10
  HIV-induced rise of IL-10: abolished the HIV-induced cytokine boost
IFN-γ
  HIV-induced rise of IFN-γ: abolished the HIV-induced cytokine boost
